Assay results: patent publication US9493448B2, “Cycloalkane derivatives” (Daiichi Sankyo Company, Limited, priority 2012, dated 2016)

What was measured:
[1] = test system: mice and rats affected by thermal hyperalgesia; assay: Thermal hyperalgesia assay; type: in vivo; settings: oral administration, constant dose, against the vehicle treatment group; latency to escape behaviors after thermal stimulation of hind paw;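 also: measurement times set by the study director and not disclosed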
hNav 1.7 = hNav 1.7 (Homo sapiens (Human), UniProt Q15858); assay: Electrophysiological evaluation, automated patch clamp IonWorks Quattro (Population Patch Clamp mode); type: cell-based; settings: HEK293A cells stably expressing hNav 1.7/β1/β2; response to second depolarization pulse, pre-pulse potential set to V1/2; read-out: hNav1.7 IC50
hNav 1.7, sequence (Q15858 whole entry): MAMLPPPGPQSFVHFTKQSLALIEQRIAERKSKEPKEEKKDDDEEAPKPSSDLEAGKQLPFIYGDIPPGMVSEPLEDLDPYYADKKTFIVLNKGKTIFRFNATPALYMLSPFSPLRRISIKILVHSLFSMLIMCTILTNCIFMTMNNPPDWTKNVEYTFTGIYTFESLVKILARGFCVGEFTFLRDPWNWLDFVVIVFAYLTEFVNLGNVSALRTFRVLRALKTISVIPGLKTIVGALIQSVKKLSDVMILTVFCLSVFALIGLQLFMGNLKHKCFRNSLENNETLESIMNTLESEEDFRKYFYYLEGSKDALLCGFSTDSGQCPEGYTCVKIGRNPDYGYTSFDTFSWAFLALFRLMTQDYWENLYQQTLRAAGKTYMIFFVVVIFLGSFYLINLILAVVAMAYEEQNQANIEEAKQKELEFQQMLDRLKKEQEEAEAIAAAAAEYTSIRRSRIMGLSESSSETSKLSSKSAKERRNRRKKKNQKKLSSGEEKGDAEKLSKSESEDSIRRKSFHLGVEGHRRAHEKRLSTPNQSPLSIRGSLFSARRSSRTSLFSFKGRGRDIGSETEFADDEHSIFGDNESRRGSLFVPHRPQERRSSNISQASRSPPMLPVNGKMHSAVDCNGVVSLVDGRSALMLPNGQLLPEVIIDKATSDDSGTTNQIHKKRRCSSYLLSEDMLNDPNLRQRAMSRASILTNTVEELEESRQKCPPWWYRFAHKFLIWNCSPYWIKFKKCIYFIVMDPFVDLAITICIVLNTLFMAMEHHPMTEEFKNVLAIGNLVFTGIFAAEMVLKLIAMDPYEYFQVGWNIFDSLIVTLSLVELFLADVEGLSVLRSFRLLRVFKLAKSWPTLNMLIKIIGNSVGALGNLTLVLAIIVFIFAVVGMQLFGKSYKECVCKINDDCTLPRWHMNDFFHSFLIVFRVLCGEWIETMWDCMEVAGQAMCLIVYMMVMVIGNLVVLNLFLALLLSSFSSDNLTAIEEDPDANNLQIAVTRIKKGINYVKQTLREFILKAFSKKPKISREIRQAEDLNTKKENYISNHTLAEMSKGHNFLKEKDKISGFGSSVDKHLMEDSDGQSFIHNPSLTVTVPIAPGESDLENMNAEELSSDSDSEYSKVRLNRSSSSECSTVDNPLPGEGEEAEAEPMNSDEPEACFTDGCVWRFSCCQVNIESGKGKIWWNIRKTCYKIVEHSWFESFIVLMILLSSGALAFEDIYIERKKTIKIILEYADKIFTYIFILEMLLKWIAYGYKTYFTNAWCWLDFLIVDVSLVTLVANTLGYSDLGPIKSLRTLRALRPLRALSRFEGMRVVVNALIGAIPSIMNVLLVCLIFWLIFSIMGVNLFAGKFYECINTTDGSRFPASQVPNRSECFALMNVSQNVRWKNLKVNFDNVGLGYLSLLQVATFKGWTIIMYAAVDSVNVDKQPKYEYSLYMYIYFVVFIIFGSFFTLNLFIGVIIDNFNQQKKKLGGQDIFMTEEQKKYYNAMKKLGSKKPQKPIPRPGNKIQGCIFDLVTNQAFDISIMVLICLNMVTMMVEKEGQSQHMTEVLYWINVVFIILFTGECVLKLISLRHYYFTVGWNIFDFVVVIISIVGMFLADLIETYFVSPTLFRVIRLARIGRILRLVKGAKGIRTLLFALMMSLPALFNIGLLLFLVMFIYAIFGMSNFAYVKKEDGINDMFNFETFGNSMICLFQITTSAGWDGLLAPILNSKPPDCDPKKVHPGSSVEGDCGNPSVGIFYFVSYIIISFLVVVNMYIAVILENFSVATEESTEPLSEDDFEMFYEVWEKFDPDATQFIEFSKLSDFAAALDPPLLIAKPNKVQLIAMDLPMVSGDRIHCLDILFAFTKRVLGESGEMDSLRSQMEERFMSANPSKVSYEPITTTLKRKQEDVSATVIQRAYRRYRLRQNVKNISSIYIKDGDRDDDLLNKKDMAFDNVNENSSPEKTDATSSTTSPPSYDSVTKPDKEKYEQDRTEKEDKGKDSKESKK
hNav 1.7, sequence (Q07699 19-218 partner): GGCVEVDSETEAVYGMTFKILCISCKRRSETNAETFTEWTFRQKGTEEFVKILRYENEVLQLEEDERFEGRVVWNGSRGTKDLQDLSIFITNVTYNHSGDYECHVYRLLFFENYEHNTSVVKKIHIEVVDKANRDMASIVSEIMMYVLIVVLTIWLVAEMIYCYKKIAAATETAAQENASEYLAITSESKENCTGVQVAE
hNav 1.7, sequence (O60939 30-215 partner): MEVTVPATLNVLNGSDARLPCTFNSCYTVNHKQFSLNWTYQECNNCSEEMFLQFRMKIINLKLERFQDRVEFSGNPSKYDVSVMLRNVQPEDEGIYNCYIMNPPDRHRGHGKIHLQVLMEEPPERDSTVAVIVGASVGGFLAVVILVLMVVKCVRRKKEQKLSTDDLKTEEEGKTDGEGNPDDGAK

Cc1c(O[C@H]2CCCC[C@@H]2c2c[nH]nc2N)ccc(S(=O)(=O)Nc2ccncn2)c1F (relative stereo) [Example 73, 4-{[(1S*,2R*)-2-(3-Amino-1H-pyrazol-4-yl)cyclohexyl]oxy}-2-fluoro-3-methyl-N-(pyrimidin-4-yl)benzenesulfonamide]
Ratio of improving pain score (%) [1]: A (“A” when the rate was 61 to 100%)
IC50 (hNav 1.7): 0.1 µM

Cn1nccc1[C@H]1CCCC[C@@H]1Oc1ccc(S(=O)(=O)Nc2ccncn2)c(F)c1Cl (relative stereo) [Example 79, 3-Chloro-2-fluoro-4-{[(1S*,2R*)-2-(1-methyl-1H-pyrazol-5-yl)cyclohexyl]oxy}-N-(pyrimidin-4-yl)benzenesulfonamide]
Ratio of improving pain score (%) [1]: C (“C” when the rate was 0 to 30%)
IC50 (hNav 1.7): 0.07 µM

Cn1nccc1[C@H]1CCC[C@@H]1Oc1ccc(S(=O)(=O)Nc2ccncn2)c(F)c1Cl (relative stereo) [Example 80, 3-Chloro-2-fluoro-4-{[(1S*,2R*)-2-(1-methyl-1H-pyrazol-5-yl)cyclopentyl]oxy}-N-(pyrimidin-4-yl)benzenesulfonamide]
Ratio of improving pain score (%) [1]: C (“C” when the rate was 0 to 30%)
IC50 (hNav 1.7): 0.086 µM

Cc1cc(S(=O)(=O)Nc2ccncn2)c(F)cc1O[C@H]1CCCC[C@@H]1c1cn[nH]c1 (relative stereo) [Example 81, 2-Fluoro-5-methyl-4-{[(1S*,2R*)-2-(1H-pyrazol-4-yl)cyclohexyl]oxy}-N-(pyrimidin-4-yl)benzenesulfonamide]
Ratio of improving pain score (%) [1]: C (“C” when the rate was 0 to 30%)
IC50 (hNav 1.7): 0.15 µM

Nc1nnccc1[C@H]1CCCC[C@@H]1Oc1cc(F)c(S(=O)(=O)Nc2ccncn2)cc1F (relative stereo) [Example 82, 4-{[(1S*,2R*)-2-(3-Aminopyridazin-4-yl)cyclohexyl]oxy}-2,5-difluoro-N-(pyrimidin-4-yl)benzenesulfonamide]
Ratio of improving pain score (%) [1]: B (“B” when the rate was 31 to 60%)
IC50 (hNav 1.7): 0.056 µM

O=S(=O)(Nc1ccncn1)c1ccc(O[C@H]2CCCC[C@@H]2c2cn[nH]c2)c(F)c1F (relative stereo) [Example 83, 2,3-Difluoro-4-{[(1S*,2R*)-2-(1H-pyrazol-4-yl)cyclohexyl]oxy}-N-(pyrimidin-4-yl)benzenesulfonamide]
Ratio of improving pain score (%) [1]: B (“B” when the rate was 31 to 60%)
IC50 (hNav 1.7): 0.65 µM

Cc1c(O[C@H]2CC(F)(F)CC[C@@H]2c2ccnn2C)ccc(S(=O)(=O)Nc2ccncn2)c1F (relative stereo) [Example 84, 4-{[(1S*,2R*)-5,5-Difluoro-2-(1-methyl-1H-pyrazol-5-yl)cyclohexyl]oxy}-2-fluoro-3-methyl-N-(pyrimidin-4-yl)benzenesulfonamide]
Ratio of improving pain score (%) [1]: B (“B” when the rate was 31 to 60%)
IC50 (hNav 1.7): 0.036 µM

Cc1cc(S(=O)(=O)Nc2ccncn2)c(F)cc1O[C@H]1CCC[C@@H]1c1c[nH]nc1N (relative stereo) [Example 85, 4-{[(1S*,2R*)-2-(3-Amino-1H-pyrazol-4-yl)cyclopentyl]oxy}-2-fluoro-5-methyl-N-(pyrimidin-4-yl)benzenesulfonamide]
Ratio of improving pain score (%) [1]: B (“B” when the rate was 31 to 60%)
IC50 (hNav 1.7): 0.17 µM

Cn1nccc1[C@H]1CCCC[C@@H]1Oc1cc(F)c(S(=O)(=O)Nc2nncs2)cc1Cl (relative stereo) [Example 86, 5-Chloro-2-fluoro-4-{[(1S*,2R*)-2-(1-methyl-1H-pyrazol-5-yl)cyclohexyl]oxy}-N-(1,3,4-thiadiazol-2-yl)benzenesulfonamide]
Ratio of improving pain score (%) [1]: A (“A” when the rate was 61 to 100%)
IC50 (hNav 1.7): 0.036 µM

Cn1nccc1[C@H]1CCC[C@@H]1Oc1cc(F)c(S(=O)(=O)Nc2nncs2)cc1Cl (relative stereo) [Example 87, 5-Chloro-2-fluoro-4-{[(1S*,2R*)-2-(1-methyl-1H-pyrazol-5-yl)cyclopentyl]oxy}-N-(1,3,4-thiadiazol-2-yl)benzenesulfonamide]
Ratio of improving pain score (%) [1]: B (“B” when the rate was 31 to 60%)
IC50 (hNav 1.7): 0.28 µM
